Laboratory results reported in patent US7750003B2, “Compounds-943” (AstraZeneca AB, priority 2006, dated 2010).

target: recombinant mTOR (FLAG-tagged, residues 1362-2549) (Homo sapiens, UniProt P42345); test: In vitro mTOR kinase assay (Test (a), AlphaScreen); format: biochemical; details: ATP 20 μM, read-out: Test (a): IC50 versus mTOR kinase
Procedure, shortened: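 AlphaScreen read-out: a phospho-T389 p70 S6K antibody on acceptor beads captures the phosphorylated biotin-peptide on donor beads, with signal loss indicating inhibition.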

Chain of recombinant mTOR (FLAG-tagged, residues 1362-2549) (P42345 1362-2549): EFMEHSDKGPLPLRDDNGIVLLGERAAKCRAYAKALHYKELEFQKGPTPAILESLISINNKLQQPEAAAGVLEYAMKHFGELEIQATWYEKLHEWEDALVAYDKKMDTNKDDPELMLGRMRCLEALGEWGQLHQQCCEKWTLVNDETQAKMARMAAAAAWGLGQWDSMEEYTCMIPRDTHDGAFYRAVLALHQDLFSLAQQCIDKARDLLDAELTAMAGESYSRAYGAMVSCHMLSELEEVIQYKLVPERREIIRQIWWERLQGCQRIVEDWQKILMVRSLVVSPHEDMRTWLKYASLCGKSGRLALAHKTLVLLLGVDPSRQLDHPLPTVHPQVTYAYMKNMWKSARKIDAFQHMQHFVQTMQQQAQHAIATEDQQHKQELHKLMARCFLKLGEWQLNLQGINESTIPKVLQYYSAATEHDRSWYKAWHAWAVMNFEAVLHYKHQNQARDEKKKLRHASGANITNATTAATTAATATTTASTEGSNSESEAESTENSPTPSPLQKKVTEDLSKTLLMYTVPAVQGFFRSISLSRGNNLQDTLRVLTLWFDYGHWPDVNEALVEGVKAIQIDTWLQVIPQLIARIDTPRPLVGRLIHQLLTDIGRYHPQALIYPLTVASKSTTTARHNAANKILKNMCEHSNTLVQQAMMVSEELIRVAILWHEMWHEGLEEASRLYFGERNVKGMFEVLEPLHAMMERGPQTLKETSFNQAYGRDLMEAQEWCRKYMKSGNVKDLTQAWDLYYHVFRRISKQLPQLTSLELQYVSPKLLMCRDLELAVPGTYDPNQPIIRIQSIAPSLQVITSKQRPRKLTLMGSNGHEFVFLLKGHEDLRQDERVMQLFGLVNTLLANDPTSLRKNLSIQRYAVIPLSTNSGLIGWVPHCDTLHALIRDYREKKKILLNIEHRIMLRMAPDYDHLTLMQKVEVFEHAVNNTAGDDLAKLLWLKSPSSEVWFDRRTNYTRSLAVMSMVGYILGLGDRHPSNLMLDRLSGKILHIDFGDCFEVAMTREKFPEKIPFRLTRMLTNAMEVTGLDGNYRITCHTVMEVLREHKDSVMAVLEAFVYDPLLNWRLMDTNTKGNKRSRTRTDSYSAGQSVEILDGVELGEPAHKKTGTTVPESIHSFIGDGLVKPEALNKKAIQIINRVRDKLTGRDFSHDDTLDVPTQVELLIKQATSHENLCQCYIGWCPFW

Structure (SMILES)	IC50 [nM]
CN(C)CCNC(=O)Nc1ccc(-c2nc(CS(C)(=O)=O)cc(N3CCOCC3)n2)cc1 [Example 45j, 1-(2-dimethylaminoethyl)-3-[4-[4-(methylsulfonylmethyl)-6-morpholin-4-yl-pyrimidin-2-yl]phenyl]urea]	720
CS(=O)(=O)Cc1cc(N2CCOCC2)nc(-c2ccc(NC(=O)NCCO)cc2)n1 [Example 45k, 3-(2-hydroxyethyl)-1-[4-[4-(methylsulfonylmethyl)-6-morpholin-4-yl-pyrimidin-2-yl]phenyl]urea]	49
CCN(C)C(=O)Nc1ccc(-c2nc(CS(C)(=O)=O)cc(N3CCOCC3)n2)cc1 [Example 45l, 1-ethyl-1-methyl-3-[4-[4-(methylsulfonylmethyl)-6-morpholin-4-yl-pyrimidin-2-yl]phenyl]urea]	1100
CS(=O)(=O)Cc1cc(N2CCOCC2)nc(-c2ccc(NC(=O)N3CCCC(O)C3)cc2)n1 (stereo not drawn) [Example 45m, 3-hydroxy-N-[4-[4-(methylsulfonylmethyl)-6-morpholin-4-yl-pyrimidin-2-yl]phenyl]piperidine-1-carboxamide]	170
CS(=O)(=O)Cc1cc(N2CCOCC2)nc(-c2ccc(NC(=O)N3CCC(S(C)(=O)=O)C3)cc2)n1 (stereo not drawn) [Example 45n, 3-methylsulfonyl-N-[4-[4-(methylsulfonylmethyl)-6-morpholin-4-yl-pyrimidin-2-yl]phenyl]pyrrolidine-1-carboxamide]	630
CS(=O)(=O)Cc1cc(N2CCOCC2)nc(-c2ccc(NC(=O)NCCN3CCOCC3)cc2)n1 [Example 45o, 1-[4-[4-(methylsulfonylmethyl)-6-morpholin-4-yl-pyrimidin-2-yl]phenyl]-3-(2-morpholin-4-ylethyl)urea]	900
CC(C)(C)CNC(=O)Nc1ccc(-c2nc(CS(C)(=O)=O)cc(N3CCOCC3)n2)cc1 [Example 45p, 1-(2,2-dimethylpropyl)-3-[4-[4-(methylsulfonylmethyl)-6-morpholin-4-yl-pyrimidin-2-yl]phenyl]urea]	920
CS(=O)(=O)Cc1cc(N2CCOCC2)nc(-c2ccc(NC(=O)NCCCO)cc2)n1 [Example 45q, 3-(3-hydroxypropyl)-1-[4-[4-(methylsulfonylmethyl)-6-morpholin-4-yl-pyrimidin-2-yl]phenyl]urea]	32
CN(Cc1ccccc1)C(=O)Nc1ccc(-c2nc(CS(C)(=O)=O)cc(N3CCOCC3)n2)cc1 [Example 45r, 1-benzyl-1-methyl-3-[4-[4-(methylsulfonylmethyl)-6-morpholin-4-yl-pyrimidin-2-yl]phenyl]urea]	410
CCOCCNC(=O)Nc1ccc(-c2nc(CS(C)(=O)=O)cc(N3CCOCC3)n2)cc1 [Example 45s, 1-(2-ethoxyethyl)-3-[4-[4-(methylsulfonylmethyl)-6-morpholin-4-yl-pyrimidin-2-yl]phenyl]urea]	300
CC(CO)NC(=O)Nc1ccc(-c2nc(CS(C)(=O)=O)cc(N3CCOCC3)n2)cc1 (stereo not drawn) [Example 45t, 1-(1-hydroxypropan-2-yl)-3-[4-[4-(methylsulfonylmethyl)-6-morpholin-4-yl-pyrimidin-2-yl]phenyl]urea]	82
CS(=O)(=O)Cc1cc(N2CCOCC2)nc(-c2ccc(NC(=O)NC3CCOCC3)cc2)n1 [Example 45u, 1-[4-[4-(methylsulfonylmethyl)-6-morpholin-4-yl-pyrimidin-2-yl]phenyl]-3-(oxan-4-yl)urea]	420
CS(=O)(=O)Cc1cc(N2CCOCC2)nc(-c2ccc(NC(=O)N3CCNC(=O)C3)cc2)n1 [Example 45v, [4-[4-(methylsulfonylmethyl)-6-morpholin-4-yl-pyrimidin-2-yl]phenyl]-3-oxo-piperazine-1-carboxamide]	1200
CN1CCN(CCNC(=O)Nc2ccc(-c3nc(CS(C)(=O)=O)cc(N4CCOCC4)n3)cc2)CC1 [Example 45w, 1-[2-(4-methylpiperazin-1-yl)ethyl]-3-[4-[4-(methylsulfonylmethyl)-6-morpholin-4-yl-pyrimidin-2-yl]phenyl]urea]	740
CN(CCS(C)(=O)=O)C(=O)Nc1ccc(-c2nc(CS(C)(=O)=O)cc(N3CCOCC3)n2)cc1 [Example 45x, 1-methyl-1-(2-methylsulfonylethyl)-3-[4-[4-(methylsulfonylmethyl)-6-morpholin-4-yl-pyrimidin-2-yl]phenyl]urea]	1100
CNC(=O)C1CCN(C(=O)Nc2ccc(-c3nc(CS(C)(=O)=O)cc(N4CCOCC4)n3)cc2)CC1 [Example 45y, N′-methyl-N-[4-[4-(methylsulfonylmethyl)-6-morpholin-4-yl-pyrimidin-2-yl]phenyl]piperidine-1,4-dicarboxamide]	1200
CN(C)C(=O)CNC(=O)Nc1ccc(-c2nc(CS(C)(=O)=O)cc(N3CCOCC3)n2)cc1 [Example 45z, N,N-dimethyl-2-[[4-[4-(methylsulfonylmethyl)-6-morpholin-4-yl-pyrimidin-2-yl]phenyl]carbamoylamino] acetamide]	1000
CNC(=O)Nc1ncc(-c2nc(CS(C)(=O)=O)cc(N3CCOC[C@@H]3C)n2)s1 [Example 46, 3-Methyl-1-[5-[4-[(3S)-3-methylmorpholin-4-yl]-6-(methylsulfonylmethyl)pyrimidin-2-yl]-1,3-thiazol-2-yl]urea]	140
CNC(=O)Nc1ncc(-c2nc(N3CCOC[C@@H]3C)cc(C(C)(C)S(C)(=O)=O)n2)s1 [Example 47, 3-Methyl-1-[5-[4-[(3S)-3-methylmorpholin-4-yl]-6-(2-methylsulfonylpropan-2-yl)pyrimidin-2-yl]-1,3-thiazol-2-yl]urea]	260
C[C@H]1COCCN1c1cc(CNC2CC2)nc(-c2ccc(NC(=O)NC3CC3)cc2)n1 [Example 49, 3-Cyclopropyl-1-[4-[4-[(cyclopropylamino)methyl]-6-[(3S)-3-methylmorpholin-4-yl]pyrimidin-2-yl]phenyl]urea]	33

More lines, now with the values ahead:

IC50 [nM]	Structure (SMILES)
350	CC(C)NC(=O)Nc1ncc(-c2nc(CS(C)(=O)=O)cc(N3CCOC[C@@H]3C)n2)s1 [Example 46a, 1-[5-[4-[(3S)-3-methylmorpholin-4-yl]-6-(methylsulfonylmethyl)pyrimidin-2-yl]-1,3-thiazol-2-yl]-3-propan-2-yl-urea]
6.1	CCNC(=O)Nc1ncc(-c2nc(CS(C)(=O)=O)cc(N3CCOC[C@@H]3C)n2)s1 [Example 46b, 1-ethyl-3-[5-[4-[(3S)-3-methylmorpholin-4-yl]-6-(methylsulfonylmethyl)pyrimidin-2-yl]-1,3-thiazol-2-yl]urea]
450	C[C@H]1COCCN1c1cc(CS(C)(=O)=O)nc(-c2cnc(NC(=O)Nc3ccccc3)s2)n1 [Example 46c, 1-[5-[4-[(3S)-3-methylmorpholin-4-yl]-6-(methylsulfonylmethyl)pyrimidin-2-yl]-1,3-thiazol-2-yl]-3-phenyl-urea]
850	C[C@H]1COCCN1c1cc(CS(C)(=O)=O)nc(-c2cnc(NC(=O)Nc3ccc(F)cc3)s2)n1 [Example 46d, 3-(4-fluorophenyl)-1-[5-[4-[(3S)-3-methylmorpholin-4-yl]-6-(methylsulfonylmethyl)pyrimidin-2-yl]-1,3-thiazol-2-yl]urea]
710	C[C@H]1COCCN1c1cc(CS(C)(=O)=O)nc(-c2cnc(NC(=O)N(C)C3CC3)s2)n1 [Example 46e, 1-cyclopropyl-1-methyl-3-[5-[4-[(3S)-3-methylmorpholin-4-yl]-6-(methylsulfonylmethyl)pyrimidin-2-yl]-1,3-thiazol-2-yl]urea]
1200	COc1ccc(NC(=O)Nc2ncc(-c3nc(CS(C)(=O)=O)cc(N4CCOC[C@@H]4C)n3)s2)cc1 [Example 46f, 3-(4-methoxyphenyl)-1-[5-[4-[(3S)-3-methylmorpholin-4-yl]-6-(methylsulfonylmethyl)pyrimidin-2-yl]-1,3-thiazol-2-yl]urea]
730	C[C@H]1COCCN1c1cc(CS(C)(=O)=O)nc(-c2cnc(NC(=O)NCCN(C)C)s2)n1 [Example 46g, 3-(2-dimethylaminoethyl)-1-[5-[4-[(3S)-3-methylmorpholin-4-yl]-6-(methylsulfonylmethyl)pyrimidin-2-yl]-1,3-thiazol-2-yl]urea]
63	C[C@H]1COCCN1c1cc(CS(C)(=O)=O)nc(-c2cnc(NC(=O)Nc3cnn(C)c3)s2)n1 [Example 46h, 1-[5-[4-[(3S)-3-methylmorpholin-4-yl]-6-(methylsulfonylmethyl)pyrimidin-2-yl]-1,3-thiazol-2-yl]-3-(1-methylpyrazol-4-yl)urea]
97	C[C@H]1COCCN1c1cc(CS(C)(=O)=O)nc(-c2cnc(NC(=O)NC3CC3)s2)n1 [Example 46i, 3-cyclopropyl-1-[5-[4-[(3S)-3-methylmorpholin-4-yl]-6-(methylsulfonylmethyl)pyrimidin-2-yl]-1,3-thiazol-2-yl]urea]
1200	C[C@H]1COCCN1c1cc(C(C)(C)S(C)(=O)=O)nc(-c2cnc(NC(=O)NC3CC3)s2)n1 [Example 47a, 3-cyclopropyl-1-[5-[4-[(3S)-3-methylmorpholin-4-yl]-6-(2-methylsulfonylpropan-2-yl)pyrimidin-2-yl]-1,3-thiazol-2-yl]urea]
410	C[C@H]1COCCN1c1cc(C(C)(C)S(C)(=O)=O)nc(-c2cnc(NC(=O)Nc3cnn(C)c3)s2)n1 [Example 47b, 1-[5-[4-[(3S)-3-methylmorpholin-4-yl]-6-(2-methylsulfonylpropan-2-yl)pyrimidin-2-yl]-1,3-thiazol-2-yl]-3-(1-methylpyrazol-4-yl)urea]
1400	C[C@H]1COCCN1c1cc(C(C)(C)S(C)(=O)=O)nc(-c2cnc(NC(=O)NCc3cnn(C)c3)s2)n1 [Example 47c, 1-[5-[4-[(3S)-3-methylmorpholin-4-yl]-6-(2-methylsulfonylpropan-2-yl)pyrimidin-2-yl]-1,3-thiazol-2-yl]-3-[(1-methylpyrazol-4-yl)methyl]urea]
970	CCNC(=O)Nc1ncc(-c2nc(N3CCOC[C@@H]3C)cc(C(C)(C)S(C)(=O)=O)n2)s1 [Example 47d, 1-ethyl-3-[5-[4-[(3S)-3-methylmorpholin-4-yl]-6-(2-methylsulfonylpropan-2-yl)pyrimidin-2-yl]-1,3-thiazol-2-yl]urea]
